This is an account of results in patent US12098145B2 (Libra Therapeutics, Inc., priority 2022, dated 2024).

This assay concerns the target T1, TRPML1 (Homo sapiens, UniProt Q9GZU1).
T1 construct: expressed in transfected cells; host or cells: HEK T-REx cells stably expressing GCaMP6f and TRPML1
Put plainly: Cellular TRPML1 assay (FLIPR, GCaMP6f calcium read-out). Type of assay: cell-based. The conditions noted are these: HEKT-REx/GCaMP6f/TRPML1 cells, FLIPR TETRA, kinetic response over 300 seconds; read-out: TRPML1 FLIPR pEC50 (converted). The gist of the method:
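HEK T-REx cells stably expressing TRPML1 and GCaMP6f, seeded 24 h before in Optimem + 0.5% FBS. After ~10 min pre-incubation at room temperature, compounds in Ca2+-free Tyrode's buffer were injected on FLIPR Tetra (final DMSO 0.5%). Calcium fluorescence kinetics followed for 300 s.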

T1 sequence (Q9GZU1 whole entry): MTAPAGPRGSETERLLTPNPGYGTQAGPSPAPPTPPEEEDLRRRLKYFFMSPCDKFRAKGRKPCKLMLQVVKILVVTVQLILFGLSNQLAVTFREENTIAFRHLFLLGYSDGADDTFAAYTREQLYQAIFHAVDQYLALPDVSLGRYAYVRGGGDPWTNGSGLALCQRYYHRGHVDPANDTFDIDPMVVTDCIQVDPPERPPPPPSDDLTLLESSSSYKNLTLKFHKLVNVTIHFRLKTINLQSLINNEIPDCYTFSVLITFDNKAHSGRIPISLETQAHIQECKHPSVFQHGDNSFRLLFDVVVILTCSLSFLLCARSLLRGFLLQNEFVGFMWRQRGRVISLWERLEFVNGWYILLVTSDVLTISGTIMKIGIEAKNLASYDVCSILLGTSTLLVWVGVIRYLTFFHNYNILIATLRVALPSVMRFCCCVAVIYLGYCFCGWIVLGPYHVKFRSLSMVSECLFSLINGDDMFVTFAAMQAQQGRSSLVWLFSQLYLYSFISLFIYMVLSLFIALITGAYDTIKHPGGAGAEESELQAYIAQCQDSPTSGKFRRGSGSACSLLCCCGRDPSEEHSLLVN

On to `CCc1oc(N2CC(CC)(CO)C2)nc1C(=O)Nc1cc(F)c(O[C@@H]2C[C@@H]3C[C@@H]3C2)c(Cl)c1` [Example 220, N-(4-(cis-bicyclo[3.1.0]hexan-3-yloxy)-3-chloro-5-fluorophenyl)-5-ethyl-2-(3-ethyl-3-(hydroxymethyl)azetidin-1-yl)oxazole-4-carboxamide], for which the EC50 was 0.01 to 1 µM. In the case of `CCc1oc(N2CCCC2)nc1C(=O)Nc1cc(F)c(O[C@@H]2C[C@@H]3C[C@@H]3C2)c(Cl)c1` [Example 222, N-(4-(cis-bicyclo[3.1.0]hexan-3-yloxy)-3-chloro-5-fluorophenyl)-5-ethyl-2-(pyrrolidin-1-yl)oxazole-4-carboxamide], the EC50 was 0.01 to 1 µM. As to `CCc1oc(N2CC(C)(OC)C2)nc1C(=O)Nc1cc(C)c(O[C@@H]2C[C@@H]3C[C@@H]3C2)c(F)c1` [Example 226, N-(4-(cis-bicyclo[3.1.0]hexan-3-yloxy)-3-fluoro-5-methylphenyl)-5-ethyl-2-(3-methoxy-3-methylazetidin-1-yl)oxazole-4-carboxamide], the EC50 was 0.01 to 1 µM.

Regarding `CCc1oc(N2CCCOCC2)nc1C(=O)Nc1cc(F)c(O[C@@H]2C[C@@H]3C[C@@H]3C2)c(F)c1` [Example 231, N-(4-(cis-bicyclo[3.1.0]hexan-3-yloxy)-3,5-difluorophenyl)-5-ethyl-2-(1,4-oxazepan-4-yl)oxazole-4-carboxamide], the EC50 is 1 to 10 µM. Regarding `CCc1oc(-n2cccn2)nc1C(=O)Nc1cc(F)c(O[C@@H]2C[C@@H]3C[C@@H]3C2)c(F)c1` [Example 232, N-(4-(cis-bicyclo[3.1.0]hexan-3-yloxy)-3,5-difluorophenyl)-5-ethyl-2-(1H-pyrazol-1-yl)oxazole-4-carboxamide], the EC50 is 1 to 10 µM.

As to `CCc1oc(N2CC3CCOC3C2)nc1C(=O)Nc1cc(F)c(OC2CC3C[C@H]3C2)c(F)c1` (stereo partly drawn) [Example 233, N-(4-(cis-bicyclo[3.1.0]hexan-3-yloxy)-3,5-difluorophenyl)-5-ethyl-2-(hexahydro-5H-furo[2,3-c]pyrrol-5-yl)oxazole-4-carboxamide], the EC50 was 1 to 10 µM.

For `CCc1oc(N2CC(CC)(OC)C2)nc1C(=O)Nc1cc(F)c(OC2CCOC2)c(F)c1` (stereo not shown) [Example 234, N-(3,5-difluoro-4-((tetrahydrofuran-3-yl)oxy)phenyl)-5-ethyl-2-(3-ethyl-3-methoxyazetidin-1-yl)oxazole-4-carboxamide], the EC50 is 1 to 10 µM. On to `CCc1oc(N2CC(CC)(CC)C2)nc1C(=O)Nc1cc(F)c(OC2CCCOC2)c(F)c1` (stereo not shown) [Example 236, 2-(3,3-diethylazetidin-1-yl)-N-(3,5-difluoro-4-((tetrahydro-2H-pyran-3-yl)oxy)phenyl)-5-ethyloxazole-4-carboxamide], for which the EC50 is 0.01 to 1 µM. `CCc1oc(N2CC3COCC3C2)nc1C(=O)Nc1cc(F)c(OC2CC3C[C@H]3C2)c(F)c1` (stereo partly drawn) [Example 237, N-(4-(cis-bicyclo[3.1.0]hexan-3-yloxy)-3,5-difluorophenyl)-5-ethyl-2-(tetrahydro-1H-furo[3,4-c]pyrrol-5(3H)-yl)oxazole-4-carboxamide]: the EC50 was 0.01 to 1 µM.

As for `CCc1oc(N2CCCCCC2)nc1C(=O)Nc1cc(F)c(O[C@@H]2C[C@@H]3C[C@@H]3C2)c(F)c1` [Example 242, 2-(azepan-1-yl)-N-(4-(cis-bicyclo[3.1.0]hexan-3-yloxy)-3,5-difluorophenyl)-5-ethyloxazole-4-carboxamide], the EC50 is 0.01 to 1 µM. As to `CCc1oc(N2CC(CC)(CC)C2)nc1C(=O)Nc1cc(F)c(O[C@@H]2C[C@@H]3C[C@@H]3C2)c(F)c1` [Example 243, N-(4-(cis-bicyclo[3.1.0]hexan-3-yloxy)-3,5-difluorophenyl)-2-(3,3-diethylazetidin-1-yl)-5-ethyloxazole-4-carboxamide], the EC50 is 0.01 to 1 µM. The same measure for `CCc1oc(N2CC(CC)(OC)C2)nc1C(=O)Nc1ccc(O[C@@H]2C[C@@H]3C[C@@H]3C2)c(F)c1` [Example 246, N-(4-(cis-bicyclo[3.1.0]hexan-3-yloxy)-3-fluorophenyl)-5-ethyl-2-(3-ethyl-3-methoxyazetidin-1-yl)oxazole-4-carboxamide]: 0.01 to 1 µM; for `CCc1oc(N2CC(C)(OC)C2)nc1C(=O)Nc1ccc(O[C@@H]2C[C@@H]3C[C@@H]3C2)c(C)c1` [Example 248, N-(4-(cis-bicyclo[3.1.0]hexan-3-yloxy)-3-methylphenyl)-5-ethyl-2-(3-methoxy-3-methylazetidin-1-yl)oxazole-4-carboxamide]: 1 to 10 µM; for `CCc1oc(N2CC(CC)(OC)C2)nc1C(=O)Nc1ccc(O[C@@H]2C[C@@H]3C[C@@H]3C2)c(F)c1F` [Example 250]: 10 to 100 µM.

In the case of `CCc1oc(N2CC(CC)(OC)C2)nc1C(=O)Nc1cc(F)c(O[C@@H]2C[C@@H]3C[C@@H]3C2)cc1F` [Example 251, N-(4-(cis-bicyclo[3.1.0]hexan-3-yloxy)-2,5-difluorophenyl)-5-ethyl-2-(3-ethyl-3-methoxyazetidin-1-yl)oxazole-4-carboxamide], the EC50 was 1 to 10 µM. For `CCc1oc(N2CCCC2)nc1C(=O)Nc1cc(C)c(NC2CC3CC(C3)C2)c(F)c1` (stereo not shown) [Example 252, N-(4-(bicyclo[3.1.1]heptan-3-ylamino)-3-fluoro-5-methylphenyl)-5-ethyl-2-(pyrrolidin-1-yl)oxazole-4-carboxamide], the EC50 is 1 to 10 µM. For `CCc1oc(N2CC(CC)(CC)C2)nc1C(=O)Nc1cc(C)c(NC2CC3CC(C3)C2)c(F)c1` (stereo not shown) [Example 253, N-(4-(bicyclo[3.1.1]heptan-3-ylamino)-3-fluoro-5-methylphenyl)-2-(3,3-diethylazetidin-1-yl)-5-ethyloxazole-4-carboxamide], the EC50 was 1 to 10 µM. With `CCc1oc(N2CC3COCC3C2)nc1C(=O)Nc1cc(F)c(N2CC3CC(C3)C2)c(F)c1` (stereo not shown) [Example 257, N-(4-(3-azabicyclo[3.1.1]heptan-3-yl)-3,5-difluorophenyl)-5-ethyl-2-(tetrahydro-1H-furo[3,4-c]pyrrol-5(3H)-yl)oxazole-4-carboxamide], the EC50 was 1 to 10 µM. As to `CCc1oc(N2CC(C)(OC)C2)nc1C(=O)Nc1cc(F)c(N2CC3CC(C3)C2)c(F)c1` [Example 258, N-(4-(3-azabicyclo[3.1.1]heptan-3-yl)-3,5-difluorophenyl)-5-ethyl-2-(3-methoxy-3-methylazetidin-1-yl)oxazole-4-carboxamide], the EC50 is 1 to 10 µM. For the molecule `COC1(C)CN(c2nc(C(=O)Nc3cc(C)c(O[C@@H]4C[C@@H]5C[C@@H]5C4)c(O)c3)c(CC(F)(F)F)o2)C1` [Example 263, N-(4-(cis-bicyclo[3.1.0]hexan-3-yloxy)-3-hydroxy-5-methylphenyl)-2-(3-methoxy-3-methylazetidin-1-yl)-5-(2,2,2-trifluoroethyl)oxazole-4-carboxamide], the EC50 was 0.01 to 1 µM. `COC1(C)CN(c2nc(C(=O)Nc3cc(O)c(OC4CC5CC(C5)C4)c(F)c3)c(CC(F)(F)F)o2)C1` (stereo not shown) [Example 265, N-(4-(bicyclo[3.1.1]heptan-3-yloxy)-3-fluoro-5-hydroxyphenyl)-2-(3-methoxy-3-methylazetidin-1-yl)-5-(2,2,2-trifluoroethyl)oxazole-4-carboxamide]: the EC50 is 1 to 10 µM. In the case of `CCC1(OC)CN(c2nc(C(=O)Nc3cc(O)c(OC4CC5CC(C5)C4)c(F)c3)c(CC(F)(F)F)o2)C1` (stereo not shown) [Example 266, N-(4-(bicyclo[3.1.1]heptan-3-yloxy)-3-fluoro-5-hydroxyphenyl)-2-(3-ethyl-3-methoxyazetidin-1-yl)-5-(2,2,2-trifluoroethyl)oxazole-4-carboxamide], the EC50 was 1 to 10 µM.
